{"source": "paper PMC10149367", "about": "“The ferroptosis inducing compounds RSL3 and ML162 are not direct inhibitors of GPX4 but of TXNRD1” (Redox Biology, 2023)", "key": {"H1975 cells": {"tested_on": "H1975 cells", "experiment": "Cytotoxicity assay, H1975 cells", "format": "cell-based, human", "procedure": "(§1) Cell culture—H1975 and A549 cells were cultured in RPMI-1640 medium (HyClone) with Earle's salts supplemented and penicillin/streptomycin (100 μg/ml), while HT1080 cells were cultured in MEM medium for Fig. 2 experiments. For all other cellular experiments, A549 cells were cultured in DMEM 4.5 g/L glucose medium (Gibco), and H1975 cells in RPMI-1640 ATCC Modification (Gibco). Cell cultures were maintained at 37 °C in 5% CO2 in a medium containing 10% fetal bovine serum (FBS) (GE Healthcare, A15-102 for Fig. 2 experiments and Sigma, F7524 for all others). Experiments were performed with or without supplementation with 100 nM sodium selenite as described.\n(§2) Cytotoxicity assays— Cells were seeded in a 96-well plate at the density of 3 × 10^3 per well and allowed to adhere overnight. After which, cells were treated with various concentrations of compound for the indicated times, whereupon cell viability was determined using Cell Quanti-Blue™ Cell Viability Assay Kits (Nordic Diagnostica, CQBL-10K). Briefly, QUANTI-Blue Reagent (10 μL) was added to each well, incubated at 37 °C in 5% CO2 for 3 h, and then the plates were measured at 540nm/600 nm (Ex/Em) using the Tecan Microplate Reader (Morrisville NC, USA)."}, "HT1080 cells": {"tested_on": "HT1080 cells", "experiment": "Cytotoxicity assay, HT1080 cells", "format": "cell-based", "details": "HT1080, 24 h", "procedure": "as §1, §2"}, "A549 cells": {"tested_on": "A549 cells", "experiment": "Cytotoxicity assay, A549 cells", "format": "cell-based, human", "details": "for Cell viability compared to DMSO controls: 5 μM", "procedure": "as §1, §2"}, "[1]": {"biological_target": "T1, glutathione reductase (GR) (Homo sapiens, UniProt P00390)", "T1 construct": "made in house", "T1 sequence (P00390 44-522)": "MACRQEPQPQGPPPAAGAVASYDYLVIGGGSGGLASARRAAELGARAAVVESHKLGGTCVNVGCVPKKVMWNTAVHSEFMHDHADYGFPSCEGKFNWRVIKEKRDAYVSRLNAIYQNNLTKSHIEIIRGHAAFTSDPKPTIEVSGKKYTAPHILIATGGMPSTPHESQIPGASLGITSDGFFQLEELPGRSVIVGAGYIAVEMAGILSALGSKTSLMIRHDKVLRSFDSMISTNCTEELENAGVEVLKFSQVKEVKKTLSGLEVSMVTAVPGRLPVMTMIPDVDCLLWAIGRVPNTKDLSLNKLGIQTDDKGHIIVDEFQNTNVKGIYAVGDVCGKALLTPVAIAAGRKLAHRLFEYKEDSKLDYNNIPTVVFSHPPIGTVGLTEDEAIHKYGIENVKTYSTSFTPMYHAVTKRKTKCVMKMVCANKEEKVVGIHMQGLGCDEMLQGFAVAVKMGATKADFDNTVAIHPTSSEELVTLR", "experiment": "GR counter assay", "format": "biochemical", "details": "Extended Data Fig. 2A right panel", "procedure": "Recombinant human proteins—Recombinant human selenoprotein GPX and TXNRD isoenzymes as well as recombinant human GR were cloned, expressed, and purified as described previously [[26], [27], [28]].\nGR counter assay was run by incubating 198 μL of GR and BSA in TES buffer with 2 μL compound for 30 min before dispensing 50 μL GSSG and NADPH in TES for final concentrations of 100 nM GR, 1 mM GSSG, 0.4 mM NADPH, 0.01% BSA. Absorbance at 340 was measured as above."}, "[2]": {"details": "24 h, media not supplemented with selenium"}, "[3]": {"details": "A549, 24 h, no selenium supplementation"}, "[4]": {"details": "A549 in absence of selenium supplementation, 24 h"}}}
{"smiles": "COC(=O)c1ccc([C@@H]2c3[nH]c4ccccc4c3C[C@@H](C(=O)OC)N2C(=O)CCl)cc1", "note": "[RSL3, (1S,3R)RSL3]", "values": [{"measurement": "IC50", "setting": "H1975 cells; [2]", "result": 150, "unit": "nM"}, {"measurement": "Rescue from cytotoxicity by selenium supplementation", "setting": "H1975 cells; H1975, 24 h", "result": "partial rescue"}, {"measurement": "Rescue from cytotoxicity by selenium supplementation", "setting": "HT1080 cells", "result": "no rescue"}, {"measurement": "IC50", "setting": "A549 cells; [2]", "result": "~500", "unit": "nM"}, {"measurement": "Suppression of cell death by MitoTEMPO", "setting": "A549 cells; [3]", "result": "but not by the mitochondrial antioxidant MitoTEMPO"}, {"measurement": "Suppression of cell death by addition of ferrostatin-1", "setting": "A549 cells; [3]", "result": "at least 20 fold"}, {"measurement": "Cell viability compared to DMSO controls", "setting": "A549 cells; A549, non-selenium supplemented, 24 h", "result": 10, "unit": "%"}, {"measurement": "Cell viability compared to DMSO controls", "setting": "A549 cells; A549, supplemented with 100 nM sodium selenite, 24 h", "result": "approximately 78%"}, {"measurement": "Protection by caspase inhibitor z-VAD-fmk", "setting": "A549 cells; [4]", "result": "did not protect these cells from RSL3"}, {"measurement": "Protection by necrostatin", "setting": "A549 cells; [4]", "result": "partially protected by nectrostatin"}, {"measurement": "Block of cell death by antioxidants and iron chelators", "setting": "A549 cells; A549 without selenium supplementation, 24 h", "result": "blocked by ferrostatin, NDGA (another strong antioxidant), or the iron chelators DFO and DPD50"}, {"measurement": "Inhibition of GR", "setting": "[1]", "result": "did not inhibit GPX1 or GR"}]}
